Experimental data as given in patent US10065948B2, “Histone deacetylase inhibitors and compositions and methods of use thereof” (CHDI Foundation, Inc., priority 2014, dated 2018).
pIC50: −log10 of the molar value.

Columns and labels:
[1] = system: cellular histone deacetylase enzymatic activity in Jurkat E6-1 cells; experiment: Inhibition of cellular HDAC activity, Boc-Lys(Tfa)-AMC substrate (Cell Lys-TFA); assay type: cell-based; settings: Homo sapiens, Jurkat E6.1, Lys-TFA substrate
In short: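 Jurkat E6-1 cells (75,000/well) were treated with a 16-point compound dilution for 2 h at 37 °C, then exposed to Boc-Lys(Tfa)-AMC for 3 h. Lysis buffer containing trypsin was added overnight (15-16 h), and AMC fluorescence was read at Ex 355/Em 460 nm.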

[2] = system: cellular histone deacetylase activity (Lys-Ac); experiment: Inhibition of cellular HDAC activity (Cell Lys-Ac); assay type: cell-based; settings: Lys-Ac substrate
[3] = biological target: Histone Deacetylase 4 (HDAC4) catalytic domain (Homo sapiens (Human), UniProt P56524); experiment: Biochemical HDAC inhibition assay, fluorogenic substrate Boc-Lys(Tfa)-AMC
In short: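 Human HDAC4 catalytic domain (aa 648-1032, C-terminal His6) at 0.2 μg/mL working solution was tested against a 16-point compound dilution series in Tris buffer pH 8.0 for 15 min at 37 °C. Substrate Boc-Lys(Tfa)-AMC was prepared at 50 μM (5×). The reaction was stopped with trypsin plus reference inhibitor for 1 h at 37 °C, and AMC fluorescence was read at Ex 355/Em 460 nm.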

Histone Deacetylase 4 (HDAC4) catalytic domain, sequence (P56524 648-1032): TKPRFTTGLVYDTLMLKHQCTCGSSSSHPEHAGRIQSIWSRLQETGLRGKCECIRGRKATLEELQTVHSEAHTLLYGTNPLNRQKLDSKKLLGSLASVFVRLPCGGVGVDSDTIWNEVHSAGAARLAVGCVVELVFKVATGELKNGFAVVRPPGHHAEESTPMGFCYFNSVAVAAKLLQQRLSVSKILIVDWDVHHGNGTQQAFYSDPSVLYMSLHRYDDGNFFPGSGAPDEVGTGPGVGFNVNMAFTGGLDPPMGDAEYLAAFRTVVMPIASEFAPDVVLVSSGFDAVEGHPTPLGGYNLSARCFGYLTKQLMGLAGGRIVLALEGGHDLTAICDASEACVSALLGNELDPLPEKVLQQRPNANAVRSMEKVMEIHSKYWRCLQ

SMILES | pIC50 [1] | pIC50 [2] | pIC50 [3]
Cc1c(F)cccc1[C@]1(C(=O)NO)Cc2cnn(C3CC3)c2C1 [Example 58, (S)-1-Cyclopropyl-5-(3-fluoro-2-methylphenyl)-N-hydroxy-1,4,5,6-tetrahydrocyclopenta[c]pyrazole-5-carboxamide] | 6.90 | < 4.30 | 7.32
Cc1c(F)cccc1[C@]1(C(=O)NO)CCc2c1cnn2C1CC1 [Example 59, (R)-1-cyclopropyl-4-(3-fluoro-2-methylphenyl)-N-hydroxy-1,4,5,6-tetrahydrocyclopenta[c]pyrazole-4-carboxamide] | 6.14 | < 4.30 | 7.00
Cc1c(F)cccc1C1(C(=O)NO)Cc2nc(Cc3cccc(C(F)(F)F)c3)sc2C1 (stereo not drawn) [Example 63, 5-(3-Fluoro-2-methylphenyl)-N-hydroxy-2-(3-(trifluoromethyl)benzyl)-5,6-dihydro-4H-cyclopenta[d]thiazole-5-carboxamide] | 7.42 | < 4.30 | 6.31
Cc1c(F)cccc1[C@]1(C(=O)NO)Cc2nc(-c3ccnn3C)sc2C1 [Example 68, (S)-5-(3-Fluoro-2-methylphenyl)-N-hydroxy-2-(1-methyl-1H-pyrazol-5-yl)-5,6-dihydro-4H-cyclopenta[d]thiazole-5-carboxamide] | 6.92 | < 4.30 | 6.62
Cc1c(F)cccc1[C@@]1(C(=O)NO)Cc2nc(-c3ccnn3C)sc2C1 [Example 69, (R)-5-(3-Fluoro-2-methylphenyl)-N-hydroxy-2-(1-methyl-1H-pyrazol-5-yl)-5,6-dihydro-4H-cyclopenta[d]thiazole-5-carboxamide] | 7.46 | < 4.30 | 7.36
Cc1cc(-c2nc3c(s2)C[C@@](C(=O)NO)(c2cccc(F)c2C)C3)n(C)n1 [Example 70, (R)-2-(1,3-Dimethyl-1H-pyrazol-5-yl)-5-(3-fluoro-2-methylphenyl)-N-hydroxy-5,6-dihydro-4H-cyclopenta[d]thiazole-5-carboxamide] | 7.10 | < 4.30 | 6.91
COc1ccc(-c2nc3c(s2)C[C@@](C(=O)NO)(c2cccc(F)c2C)C3)nc1 [Example 71, (R)-5-(3-Fluoro-2-methylphenyl)-N-hydroxy-2-(5-methoxypyridin-2-yl)-5,6-dihydro-4H-cyclopenta[d]thiazole-5-carboxamide] | 7.25 | < 4.30 | 7.02
Cc1ccccc1-c1nc2c(s1)[C@](C(=O)NO)(c1cccc(F)c1C)CC2 [Example 73, (S)-6-(3-Fluoro-2-methylphenyl)-N-hydroxy-2-(o-tolyl)-5,6-dihydro-4H-cyclopenta[d]thiazole-6-carboxamide] | 6.20 | < 4.30 | 6.84
Cc1c(F)cccc1[C@]1(C(=O)NO)CCc2nc(-c3ccc(F)cc3)sc21 [Example 78, (S)-6-(3-Fluoro-2-methylphenyl)-2-(4-fluorophenyl)-N-hydroxy-5,6-dihydro-4H-cyclopenta[d]thiazole-6-carboxamide] | 6.30 | < 4.30 | 6.92
Cc1c(F)cccc1[C@]1(C(=O)NO)Cc2nn(C)c(-c3ccc(F)cc3)c2C1 [Example 79, (R)-5-(3-Fluoro-2-methylphenyl)-3-(4-fluorophenyl)-N-hydroxy-2-methyl-2,4,5,6-tetrahydrocyclopenta[c]pyrazole-5-carboxamide] | 7.59 | 4.44 | 7.28
Cc1c(F)cccc1C1(C(=O)NO)Cc2ccccc2C1 [Example 82, 2-(3-Fluoro-2-methylphenyl)-N-hydroxy-2,3-dihydro-1H-indene-2-carboxamide] | 5.74 | < 4.30 | 6.96
Cc1c(F)cccc1C1(C(=O)NO)CCc2cnc(C3CC3)nc2CC1 (stereo not drawn) [Example 83, 2-Cyclopropyl-7-(3-fluoro-2-methylphenyl)-N-hydroxy-6,7,8,9-tetrahydro-5H-cyclohepta[d]pyrimidine-7-carboxamide] | 6.31 | < 4.30 | 5.89

Second part, the compound after the results:

pIC50 [1] | pIC50 [2] | pIC50 [3] | SMILES
4.33 | < 4.30 | 5.09 | O=C(NO)C1(c2ccccc2)CCc2cn(CC(F)(F)F)nc2CC1 (stereo not drawn) [Example 86, N-Hydroxy-6-phenyl-2-(2,2,2-trifluoroethyl)-2,4,5,6,7,8-hexahydrocyclohepta[c]pyrazole-6-carboxamide]
6.34 | < 4.30 | 6.55 | Cc1cc(C)nc(-n2cc3c(n2)C[C@](C(=O)NO)(c2cccc(F)c2C)C3)n1 [Example 91, (S)-2-(4,6-Dimethylpyrimidin-2-yl)-5-(3-fluoro-2-methylphenyl)-N-hydroxy-2,4,5,6-tetrahydrocyclopenta[c]pyrazole-5-carboxamide]
7.57 | < 4.30 | 7.32 | Cc1c(F)cccc1[C@]1(C(=O)NO)Cc2cnn(Cc3ccccc3)c2C1 [Example 92, (S)-1-Benzyl-5-(3-fluoro-2-methylphenyl)-N-hydroxy-1,4,5,6-tetrahydrocyclopenta[c]pyrazole-5-carboxamide]
6.77 | < 4.30 | 7.57 | Cc1c(F)cccc1[C@]1(C(=O)NO)CCc2c1cnn2Cc1ccccc1 [Example 93, (R)-1-benzyl-4-(3-fluoro-2-methylphenyl)-N-hydroxy-1,4,5,6-tetrahydrocyclopenta[c]pyrazole-4-carboxamide]
5.56 | < 4.30 | 6.09 | Cc1c(F)cccc1[C@]1(C(=O)NO)CCc2nn(Cc3ccccc3)cc21 [Example 94, (R)-2-Benzyl-4-(3-fluoro-2-methylphenyl)-N-hydroxy-2,4,5,6-tetrahydrocyclopenta[c]pyrazole-4-carboxamide]
5.53 | < 4.30 | 6.15 | Cc1c(F)cccc1[C@]1(C(=O)NO)CCc2nn(Cc3ccccc3F)cc21 [Example 95, (R)-4-(3-fluoro-2-methylphenyl)-2-(2-fluorobenzyl)-N-hydroxy-2,4,5,6-tetrahydrocyclopenta[c]pyrazole-4-carboxamide]
7.22 | < 4.30 | 7.29 | Cc1c(F)cccc1[C@@]1(C(=O)NO)Cc2nc(-c3ccc(F)cn3)sc2C1 [Example 96, (R)-5-(3-Fluoro-2-methylphenyl)-N-hydroxy-2-(5-fluoropyridin-2-yl)-5,6-dihydro-4H-cyclopenta[d]thiazole-5-carboxamide]
